# From US7022718B2, “Pyridine and pyrimidine derivatives” (Hoffmann-La Roche Inc., priority 2002, dated 2006)
# Molecular target: human DPP-IV (Homo sapiens, UniProt P27487)
# Experiment: DPP-IV activity assay (fluorometric / colorimetric), IC50 determination
# Settings: not given
# Chain of human DPP-IV (P27487 31-766): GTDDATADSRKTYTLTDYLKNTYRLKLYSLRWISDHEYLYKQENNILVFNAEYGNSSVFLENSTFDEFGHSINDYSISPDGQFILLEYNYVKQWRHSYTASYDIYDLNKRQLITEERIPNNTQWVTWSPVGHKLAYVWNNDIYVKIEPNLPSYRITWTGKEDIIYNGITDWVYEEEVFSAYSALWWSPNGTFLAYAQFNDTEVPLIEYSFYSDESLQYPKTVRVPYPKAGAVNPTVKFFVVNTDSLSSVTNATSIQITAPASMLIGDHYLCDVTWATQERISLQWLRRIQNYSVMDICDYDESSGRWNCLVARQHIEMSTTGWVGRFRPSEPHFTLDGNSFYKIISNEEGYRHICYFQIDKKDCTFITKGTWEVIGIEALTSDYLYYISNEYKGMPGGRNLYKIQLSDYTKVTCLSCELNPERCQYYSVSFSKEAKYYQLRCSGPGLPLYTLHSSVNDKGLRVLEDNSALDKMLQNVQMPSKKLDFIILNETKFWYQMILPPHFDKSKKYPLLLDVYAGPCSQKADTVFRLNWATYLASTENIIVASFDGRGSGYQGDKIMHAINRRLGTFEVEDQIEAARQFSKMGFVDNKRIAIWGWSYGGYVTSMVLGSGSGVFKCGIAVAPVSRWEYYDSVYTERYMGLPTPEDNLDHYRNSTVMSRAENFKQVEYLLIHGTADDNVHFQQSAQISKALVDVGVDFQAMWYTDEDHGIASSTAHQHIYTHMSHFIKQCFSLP
row,SMILES,IC50
1,"Cc1c(-c2ccccc2)nc(N)c(CN)c1-c1ccc(Cl)cc1Cl [Example 79, 3-Aminomethyl-4-(2,4-dichloro-phenyl)-5-methyl-6-phenyl-pyridin-2-ylamine]",0.873 µM
2,"Cc1ccc(-c2nc(-c3ccccc3)nc(N)c2CN)c(C)c1 [Example 11, 5-Aminomethyl-6-(2,4-dimethyl-phenyl)-2-phenyl-pyrimidin-4-ylamine]",0.172 µM
3,"NCc1c(N)nc(N2CCCCCC2)nc1-c1ccc(Cl)cc1Cl [Example 20, 5-Aminomethyl-2-azepan-1-yl-6-(2,4-dichloro-phenyl)-pyrimidin-4-ylamine]",0.003 µM
4,"CCc1ccc(-c2nc(-c3ccccc3)nc(N)c2CN)cc1 [Example 43, 5-Aminomethyl-6-(4-ethyl-phenyl)-2-phenyl-pyrimidin-4-ylamine]",0.389 µM

# The next lines start with the values.
row,IC50,SMILES
1,0.0007 µM,"NCc1c(N)nc(-c2cc3ccccc3o2)nc1-c1ccc(Cl)cc1Cl [Example 16, 5-Aminomethyl-2-benzofuran-2-yl-6-(2,4-dichloro-phenyl)-pyrimidin-4-ylamine]"
2,0.391 µM,"CNCc1c(N)nc(-c2ccccc2)nc1-c1ccc(Cl)cc1Cl [Example 76, 6-(2,4-Dichloro-phenyl)-5-methylaminomethyl-2-phenyl-pyrimidin-4-ylamine]"
3,0.013 µM,"CSc1nc(N)c(CN)c(-c2ccc(Cl)cc2Cl)n1 [Example 23, 5-Aminomethyl-6-(2,4-dichloro-phenyl)-2-methylsulfanyl-pyrimidin-4-ylamine]"

# Same assay, conditions: natural human DPP-IV from human plasma pool or recombinant human DPP-IV; 37° C., pH 7.8
row,SMILES,IC50
1,"NCc1c(N)nc(-c2cccc(F)c2)nc1-c1ccc(Cl)cc1Cl [Example 13, 5-Aminomethyl-6-(2,4-dichloro-phenyl)-2-(3-fluoro-phenyl)-pyrimidin-4-ylamine]",0.0002 µM
